# Read-outs that look alike come from different tables or passages of the source.
# Key:
# Test in all cases: NCI anticancer screen, SRB assay, 48 h
# Format in all cases: cell-based, human
# Settings in all cases: Homo sapiens
# UACC-62 (melanoma) = system: UACC-62 (melanoma)
# Description: (§1) Some of biological activity studies were carried out at the National Cancer Institute (NCI), Maryland, USA.
# (§2) The compounds were evaluated for anticancer activity against fifty three human cancer cells derived from nine cancer types (leukemia cell line, non-small-cell lung cell line, colon cell line, CNS cell line, melanoma cell line, ovarian cell line, prostate cell line, and breast cancer cell line) as shown in Table 1. For each compound, dose response curves for each cell line were measured at a minimum of five concentrations at 10 fold dilutions. A protocol of 48 h continuous drug exposure was used and a sulforhodamine B (SRB) protein assay was used to estimate cell viability or growth.
# HT29 (colon) = system: HT29 (colon)
# Description: as §1, §2
# KM12 (colon) = system: KM12 (colon)
# Description: as §1, §2
# UACC-257 (melanoma) = system: UACC-257 (melanoma)
# Description: as §1, §2
# OVCAR-3 (ovarian) = system: OVCAR-3 (ovarian)
# Description: as §1, §2
# LOX IMVI (melanoma) = system: LOX IMVI (melanoma)
# Description: as §1, §2
# [1] = system: NCI-H322M (non-small cell lung)
# Description: as §1, §2
# [2] = system: A549/ATCC (non-small cell lung)
# Description: as §1, §2
# [3] = system: EKVX (non-small cell lung)
# Description: as §1, §2
# [4] = system: NCI-H522 (non-small cell lung)
# Description: as §1, §2
# SK-OV-3 (ovarian) = system: SK-OV-3 (ovarian)
# Description: as §1, §2
# A498 (renal) = system: A498 (renal)
# Description: as §1, §2
# BT-549 (breast) = system: BT-549 (breast)
# Description: as §1, §2
# MDA-MB-435 (melanoma) = system: MDA-MB-435 (melanoma)
# Description: as §1, §2
# [5] = system: K-562 (leukemia cell line)
# Description: as §1, §2
# SF-268 (CNS) = system: SF-268 (CNS)
# Description: as §1, §2
# TK-10 (renal) = system: TK-10 (renal)
# Description: as §1, §2
# HCT-116 (colon) = system: HCT-116 (colon)
# Description: as §1, §2
# PC-3 (prostate) = system: PC-3 (prostate)
# Description: as §1, §2
# [6] = system: NCI-H226 (non-small cell lung)
# Description: as §1, §2
# MDA-MB-231/ATCC (breast) = system: MDA-MB-231/ATCC (breast)
# Description: as §1, §2
# HCT-15 (colon) = system: HCT-15 (colon)
# Description: as §1, §2
# [7] = system: RPMI-8226 (leukemia cell line)
# Description: as §1, §2
# SF-295 (CNS) = system: SF-295 (CNS)
# Description: as §1, §2
# SW-620 (colon) = system: SW-620 (colon)
# Description: as §1, §2
# CAKI-1 (renal) = system: CAKI-1 (renal)
# Description: as §1, §2
# OVCAR-4 (ovarian) = system: OVCAR-4 (ovarian)
# Description: as §1, §2
# OVCAR-8 (ovarian) = system: OVCAR-8 (ovarian)
# Description: as §1, §2
# 786-0 (renal) = system: 786-0 (renal)
# Description: as §1, §2
# SK-MEL-5 (melanoma) = system: SK-MEL-5 (melanoma)
# Description: as §1, §2
# SNB-75 (CNS) = system: SNB-75 (CNS)
# Description: as §1, §2
# MALME-3M (melanoma) = system: MALME-3M (melanoma)
# Description: as §1, §2
# [8] = system: NCI-H23 (non-small cell lung)
# Description: as §1, §2
# MCF7 (breast) = system: MCF7 (breast)
# Description: as §1, §2
# TD-47D (breast) = system: TD-47D (breast)
# Description: as §1, §2
# HS 578T (breast) = system: HS 578T (breast)
# Description: as §1, §2
# [9] = 48 h exposure, SRB, read-out: GI50
# [10] = read-out: pGI50 (-log of molar concentration causing 50% inhibition of net cell growth) (converted)
# [11] = HT-29, 48 h exposure, SRB, read-out: GI50
# [12] = HT-29, read-out: pGI50 (-log of molar concentration causing 50% inhibition of net cell growth) (converted)
# [13] = K562, 48 h exposure, SRB, read-out: GI50
# [14] = K562, read-out: pGI50 (-log of molar concentration causing 50% inhibition of net cell growth) (converted)
# [15] = Malme-3M, read-out: pGI50 (-log of molar concentration causing 50% inhibition of net cell growth) (converted)
# [16] = MALME-3M, 48 h exposure, SRB, read-out: GI50
structure (smiles),measurement,setting,value
"COc1cc(/C=C/C(=O)c2cccc(-n3cc(-c4cc(OC)c(OC)c(OC)c4)[nH]c3=O)c2)cc(OC)c1OC [5d, 4-(3,4,5-trimethoxyphenyl)-1-3-[(E)-3-(3,4,5-trimethoxyphenyl)-2-propenoyl]phenyl-2,3-dihydro-1H-2-imidazolone]",GI50,UACC-62 (melanoma); [9],1870 nM
same,GI50,UACC-62 (melanoma); [10],1860 nM
same,GI50,HT29 (colon); [11],1700 nM
same,GI50,HT29 (colon); [12],1700 nM
same,GI50,KM12 (colon); [9],1120 nM
same,GI50,KM12 (colon); [10],1120 nM
same,GI50,UACC-257 (melanoma); [9],2220 nM
same,GI50,UACC-257 (melanoma); [10],2240 nM
same,GI50,OVCAR-3 (ovarian); [9],1480 nM
same,GI50,OVCAR-3 (ovarian); [10],1480 nM
same,GI50,LOX IMVI (melanoma); [9],1230 nM
same,GI50,LOX IMVI (melanoma); [10],1230 nM
same,GI50,[1]; [9],3610 nM
same,GI50,[1]; [10],3630 nM
same,GI50,[2]; [9],3030 nM
same,GI50,[2]; [10],3020 nM
same,GI50,[3]; [9],9470 nM
same,GI50,[3]; [10],9550 nM
same,GI50,[4]; [9],1050 nM
same,GI50,[4]; [10],1050 nM
same,GI50,SK-OV-3 (ovarian); [9],5120 nM
same,GI50,SK-OV-3 (ovarian); [10],5130 nM
same,GI50,A498 (renal); [9],20300 nM
same,GI50,A498 (renal); [10],20400 nM
same,GI50,BT-549 (breast); [9],1520 nM
same,GI50,BT-549 (breast); [10],1510 nM
same,GI50,MDA-MB-435 (melanoma); [9],2110 nM
same,GI50,MDA-MB-435 (melanoma); [10],2090 nM
same,GI50,[5]; [13],590 nM
same,GI50,[5]; [14],589 nM
same,GI50,SF-268 (CNS); [9],2200 nM
same,GI50,SF-268 (CNS); [10],2190 nM
same,GI50,TK-10 (renal); [9],3000 nM
same,GI50,TK-10 (renal); [10],3020 nM
same,GI50,HCT-116 (colon); [9],740 nM
same,GI50,HCT-116 (colon); [10],741 nM
same,GI50,"PC-3 (prostate); PC-3, read-out: pGI50 (-log of molar concentration causing 50% inhibition of net cell growth) (converted)",2630 nM
same,GI50,"PC-3 (prostate); one prostate cancer cell line (PC-3), exposure at least 48 hrs, read-out: GI50",2630 nM
same,GI50,[6]; [9],14400 nM
same,GI50,[6]; [10],14500 nM
same,GI50,MDA-MB-231/ATCC (breast); [9],4190 nM
same,GI50,MDA-MB-231/ATCC (breast); [10],4170 nM
same,GI50,HCT-15 (colon); [9],1890 nM
same,GI50,HCT-15 (colon); [10],1910 nM
same,GI50,[7]; [9],230 nM
same,GI50,[7]; [10],229 nM
same,GI50,SF-295 (CNS); [9],4960 nM
same,GI50,SF-295 (CNS); [10],5010 nM
same,GI50,SW-620 (colon); [9],1030 nM
same,GI50,SW-620 (colon); [10],1020 nM
same,GI50,CAKI-1 (renal); [9],2890 nM
same,GI50,CAKI-1 (renal); [10],2880 nM
same,GI50,OVCAR-4 (ovarian); [9],3770 nM
same,GI50,OVCAR-4 (ovarian); [10],3800 nM
same,GI50,OVCAR-8 (ovarian); [9],2320 nM
same,GI50,OVCAR-8 (ovarian); [10],2340 nM
same,GI50,786-0 (renal); [9],1590 nM
same,GI50,786-0 (renal); [10],1580 nM
same,GI50,SK-MEL-5 (melanoma); [9],2760 nM
same,GI50,SK-MEL-5 (melanoma); [10],2750 nM
same,GI50,SNB-75 (CNS); [9],5130 nM
same,GI50,SNB-75 (CNS); [10],5130 nM
same,GI50,MALME-3M (melanoma); [15],1820 nM
same,GI50,MALME-3M (melanoma); [16],1800 nM
same,GI50,[8]; [9],2000 nM
same,GI50,[8]; [10],2000 nM
same,GI50,MCF7 (breast); [9],470 nM
same,GI50,MCF7 (breast); [10],468 nM
same,GI50,TD-47D (breast); [9],3080 nM
same,GI50,TD-47D (breast); [10],3090 nM
"O=C(/C=C/c1cccc(O)c1)c1cccc(-n2cc(-c3ccc(Cl)cc3)[nH]c2=O)c1 [4f, 4-(4-chlorophenyl)-1-3-[(E)-3-(3-hydroxyphenyl)-2-propenoyl]phenyl-2,3-dihydro-1H-2-imidazolone]",GI50,UACC-62 (melanoma); [9],1850 nM
same,GI50,UACC-62 (melanoma); [10],1860 nM
same,GI50,HT29 (colon); [11],1900 nM
same,GI50,HT29 (colon); [12],1910 nM
same,GI50,KM12 (colon); [9],1340 nM
same,GI50,KM12 (colon); [10],1350 nM
same,GI50,UACC-257 (melanoma); [9],4070 nM
same,GI50,UACC-257 (melanoma); [10],4070 nM
same,GI50,OVCAR-3 (ovarian); [9],1560 nM
same,GI50,OVCAR-3 (ovarian); [10],1550 nM
same,GI50,LOX IMVI (melanoma); [9],1570 nM
same,GI50,LOX IMVI (melanoma); [10],1580 nM
same,GI50,[1]; [9],2520 nM
same,GI50,[1]; [10],2510 nM
same,GI50,[2]; [9],3550 nM
same,GI50,[2]; [10],3550 nM
same,GI50,[3]; [9],2400 nM
same,GI50,[3]; [10],2400 nM
same,GI50,[4]; [9],1650 nM
same,GI50,[4]; [10],1660 nM
same,GI50,SK-OV-3 (ovarian); [9],4210 nM
same,GI50,SK-OV-3 (ovarian); [10],4170 nM
same,GI50,A498 (renal); [9],3710 nM
same,GI50,A498 (renal); [10],3720 nM
same,GI50,BT-549 (breast); [9],1450 nM
same,GI50,BT-549 (breast); [10],1450 nM
same,GI50,MDA-MB-435 (melanoma); [9],2060 nM
same,GI50,MDA-MB-435 (melanoma); [10],2040 nM
same,GI50,[5]; [13],400 nM
same,GI50,[5]; [14],398 nM
same,GI50,SF-268 (CNS); [9],1780 nM
same,GI50,SF-268 (CNS); [10],1780 nM
same,GI50,TK-10 (renal); [9],2830 nM
same,GI50,TK-10 (renal); [10],2820 nM
same,GI50,HCT-116 (colon); [9],1230 nM
same,GI50,HCT-116 (colon); [10],1230 nM
same,GI50,[6]; [9],2310 nM
same,GI50,[6]; [10],2290 nM
same,GI50,MDA-MB-231/ATCC (breast); [9],3350 nM
same,GI50,MDA-MB-231/ATCC (breast); [10],3390 nM
same,GI50,HCT-15 (colon); [9],2330 nM
same,GI50,HCT-15 (colon); [10],2340 nM
same,GI50,[7]; [9],1550 nM
same,GI50,[7]; [10],1550 nM
same,GI50,SF-295 (CNS); [9],1790 nM
same,GI50,SF-295 (CNS); [10],1780 nM
same,GI50,SW-620 (colon); [9],1620 nM
same,GI50,SW-620 (colon); [10],1620 nM
same,GI50,HS 578T (breast); [9],4000 nM
same,GI50,HS 578T (breast); [10],3980 nM
same,GI50,CAKI-1 (renal); [9],1720 nM
same,GI50,CAKI-1 (renal); [10],1740 nM
same,GI50,OVCAR-4 (ovarian); [9],2210 nM
same,GI50,OVCAR-4 (ovarian); [10],2190 nM
same,GI50,OVCAR-8 (ovarian); [9],990 nM
same,GI50,OVCAR-8 (ovarian); [10],1000 nM
same,GI50,786-0 (renal); [9],1570 nM
same,GI50,786-0 (renal); [10],1580 nM
same,GI50,SK-MEL-5 (melanoma); [9],1530 nM
same,GI50,SK-MEL-5 (melanoma); [10],1510 nM
same,GI50,SNB-75 (CNS); [9],1460 nM
same,GI50,SNB-75 (CNS); [10],1450 nM
same,GI50,MALME-3M (melanoma); [15],1820 nM
same,GI50,MALME-3M (melanoma); [16],1830 nM
same,GI50,[8]; [9],2780 nM
same,GI50,[8]; [10],2750 nM
same,GI50,MCF7 (breast); [9],1270 nM
same,GI50,MCF7 (breast); [10],1290 nM
same,GI50,TD-47D (breast); [9],1920 nM
same,GI50,TD-47D (breast); [10],1910 nM
